Counter-ions that a name gives are not always drawn. Like-named read-outs stand apart in the source and are kept apart here.

In general, IC50 refers to the concentration that gives 50% inhibition. Broadly, the inhibition is the relative decrease from the control value, in per cent.

In this assay the target is full-length USP7 (Homo sapiens (Human), UniProt Q93009). The assay is described as follows: Enzymatic assay to determine IC50 of USP7 inhibitors (Ubiquitin-Rhodamine 110 cleavage). The class given is biochemical. Particulars: for IC50: 0.5 nM USP7, 0.5 μM Ubiquitin-Rhodamine 110, 45 min at 37° C.; for inhibition at 1 µM: read-out: percent value of inhibition of USP7 activity. On the procedure: For the inhibitors disclosed herein, their potency was measured using the following method.
full-length USP7, sequence (Q93009 whole entry): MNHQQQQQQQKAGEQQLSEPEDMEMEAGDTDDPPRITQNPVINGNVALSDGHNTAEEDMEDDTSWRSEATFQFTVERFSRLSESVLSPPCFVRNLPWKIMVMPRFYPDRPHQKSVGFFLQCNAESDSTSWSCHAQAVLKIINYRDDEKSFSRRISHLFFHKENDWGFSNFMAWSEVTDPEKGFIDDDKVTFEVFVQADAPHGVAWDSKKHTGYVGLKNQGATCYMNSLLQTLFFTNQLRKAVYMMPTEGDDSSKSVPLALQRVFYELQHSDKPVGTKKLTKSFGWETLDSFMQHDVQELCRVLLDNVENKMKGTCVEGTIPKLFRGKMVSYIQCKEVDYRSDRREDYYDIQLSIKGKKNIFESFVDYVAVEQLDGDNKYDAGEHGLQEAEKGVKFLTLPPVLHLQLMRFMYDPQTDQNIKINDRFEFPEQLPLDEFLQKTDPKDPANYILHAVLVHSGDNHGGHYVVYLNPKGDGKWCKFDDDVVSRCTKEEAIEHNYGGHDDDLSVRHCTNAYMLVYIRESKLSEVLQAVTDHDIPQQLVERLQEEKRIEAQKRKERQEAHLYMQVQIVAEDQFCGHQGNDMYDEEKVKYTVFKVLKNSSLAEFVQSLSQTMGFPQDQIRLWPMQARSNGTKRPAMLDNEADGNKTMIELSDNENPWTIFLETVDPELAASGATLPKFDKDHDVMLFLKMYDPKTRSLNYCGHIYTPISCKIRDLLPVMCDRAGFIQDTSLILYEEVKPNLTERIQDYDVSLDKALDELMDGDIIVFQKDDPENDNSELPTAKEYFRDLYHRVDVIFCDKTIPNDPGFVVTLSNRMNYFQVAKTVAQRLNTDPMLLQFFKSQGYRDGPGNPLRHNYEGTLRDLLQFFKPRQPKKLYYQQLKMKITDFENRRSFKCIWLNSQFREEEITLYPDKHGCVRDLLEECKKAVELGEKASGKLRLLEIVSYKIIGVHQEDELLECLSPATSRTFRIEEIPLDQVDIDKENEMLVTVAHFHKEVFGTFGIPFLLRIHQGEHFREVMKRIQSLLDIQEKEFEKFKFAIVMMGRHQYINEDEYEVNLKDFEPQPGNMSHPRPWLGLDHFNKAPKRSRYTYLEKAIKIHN
A 45 μl reaction volume containing full-length USP7 (0.5 nM) in 50 mM HEPES pH 7.5, 150 mM NaCl, 1 mM DTT, 1 mg/ml BSA and 0.05% Tween20 was assembled in wells of 96 well half area black flat bottom plates. Test compounds were first dissolved to 25 mM stocks in DMSO and subsequently introduced to enzyme 15 min after USP7 incubation with DTT at room temperature. The enzymatic reaction was started by adding 0.5 μM Ubiquitin-Rhodamine 110 (final concentration) and allowed to proceed for 45 min at 37° C., 250 RPM shaking before Rhodamine fluorescence (485 nm excitation/520 nm emission) was measured using Tecan Spark M10 plate reader.

Where [1] appears, read: at 1 μM of the test compound, given where IC50 not determined yet.

`Cc1nc(C#N)cc(-c2ccnc3cc(CN4C(=O)C5C(C4=O)C5(C)C)sc23)c1C(=O)N1CC[C@H](N)C1` (stereo partly drawn) [Example 15, 5-((S)-3-aminopyrrolidine-1-carbonyl)-4-(2-((6,6-dimethyl-2,4-dioxo-3-azabicyclo[3.1.0]hexan-3-yl)methyl)thieno[3,2-b]pyridin-7-yl)-6-methylpicolinonitrile 2,2,2-trifluoroacetate] had a half-maximal inhibitory concentration (IC50) of less than 500 nM.

In turn, `Cc1cc(C(F)(F)F)nc(-c2ccnc3cc(CN4C(=O)C5C(C4=O)C5(C)C)sc23)c1NC1CCNCC1` (stereo not shown) [Example 128, 6,6-dimethyl-3-((7-(4-methyl-3-(piperidin-4-ylamino)-6-(trifluoromethyl)pyridin-2-yl)thieno[3,2-b]pyridin-2-yl)methyl)-3-azabicyclo[3.1.0]hexane-2,4-dione tetrahydrochloride] came in with a concentration for half-maximal inhibition (IC50) of less than 500 nM.

In turn, `Cc1nc(C(F)(F)F)cc(-c2ccnc3cc(CN4C(=O)C5C(C4=O)C5(C)C)sc23)c1NC(=O)C1CCNC1` (racemic) [Example 64, N-(4-(2-((6,6-dimethyl-2,4-dioxo-3-azabicyclo[3.1.0]hexan-3-yl)methyl)thieno[3,2-b]pyridin-7-yl)-2-methyl-6-(trifluoromethyl)pyridin-3-yl)pyrrolidine-3-carboxamide 2,2,2-trifluoroacetate] came in with an IC50 of 1000 to 10000 nM.

In turn, `Cc1cc(Cl)cc(-c2ccnc3sccc23)c1O[C@H]1CCCNC1` [Example 31, (S)-4-(5-chloro-3-methyl-2-(piperidin-3-yloxy)phenyl)thieno[2,3-b]pyridine 2,2,2-trifluoroacetate] returned an IC50 of 1000 to 10000 nM.

In turn, `Cc1ccnc(-c2ccnc3cc(CN4C(=O)C5C(C4=O)C5(C)C)sc23)c1C(O)[C@@H]1CNCCO1` (single isomer, unassigned) [Example 100, 2,2,2-trifluoroacetate] registered an IC50 of 1000 to 10000 nM.

The compound `Cc1cc(C(F)(F)F)nc(-c2ccnc3cc(CN4C(=O)C5C(C4=O)C5(C)C)sc23)c1C(=O)N1[C@@H](C)CNC[C@@H]1C` (stereo partly drawn) [Example 141, 3-((7-(3-((2S,6S)-2,6-dimethylpiperazine-1-carbonyl)-4-methyl-6-(trifluoromethyl)pyridin-2-yl)thieno[3,2-b]pyridin-2-yl)methyl)-6,6-dimethyl-3-azabicyclo[3.1.0]hexane-2,4-dione 2,2,2-trifluoroacetate] had an IC50 of less than 500 nM.

`Cc1cc(Cl)nc(-c2ccnc3cc(CN4C(=O)C5C(C4=O)C5(C)C)sc23)c1N1CCCNC1=O` (stereo not shown) [Example 121, 3-((7-(6-chloro-4-methyl-3-(2-oxotetrahydropyrimidin-1(2H)-yl)pyridin-2-yl)thieno[3,2-b]pyridin-2-yl)methyl)-6,6-dimethyl-3-azabicyclo[3.1.0]hexane-2,4-dione 2,2,2-trifluoroacetate] gave an IC50 of 500 to 1000 nM.

In turn, `Cc1cc(C(F)(F)F)nc(-c2ccnc3cc(CN4C(=O)C5C(C4=O)C5(C)C)sc23)c1C(=O)N1C[C@H]2CCN[C@H]2C1` (stereo partly drawn) [Example 108, 6,6-dimethyl-3-((7-(4-methyl-3-((3aR,6aR)-octahydropyrrolo[3,4-b]pyrrole-5-carbonyl)-6-(trifluoromethyl)pyridin-2-yl)thieno[3,2-b]pyridin-2-yl)methyl)-3-azabicyclo[3.1.0]hexane-2,4-dione dihydrochloride] had an IC50 of less than 500 nM.

In the case of `Cc1cc(C(F)(F)F)nc(-c2ccnc3cc(CN4C(=O)C5C(C4=O)C5(C)C)sc23)c1CC1CNCCN1` (racemic) [Example 35, 6,6-dimethyl-3-((7-(4-methyl-3-(piperazin-2-ylmethyl)-6-(trifluoromethyl)pyridin-2-yl)thieno[3,2-b]pyridin-2-yl)methyl)-3-azabicyclo[3.1.0]hexane-2,4-dione hydrochloride], the half-inhibitory concentration (IC50) is less than 500 nM.

`Cc1cc(C#N)nc(-c2ccnc3cc(CN4C(=O)C5C(C4=O)C5(C)C)sc23)c1C(=O)N1CC(F)(F)C1` (stereo not shown) [Example 51, 5-(3,3-difluoroazetidine-1-carbonyl)-6-(2-((6,6-dimethyl-2,4-dioxo-3-azabicyclo[3.1.0]hexan-3-yl)methyl)thieno[3,2-b]pyridin-7-yl)-4-methylpicolinonitrile hydrochloride] gave a half-maximal inhibitory concentration (IC50) of less than 500 nM.

As for `Cc1cc(C(F)(F)F)nc(-c2ccnc3cc(CN4C(=O)C5C(C4=O)C5(C)C)sc23)c1Cn1cncn1` (stereo not shown) [Example 36, 3-((7-(3-((1H-1,2,4-triazol-1-yl)methyl)-4-methyl-6-(trifluoromethyl)pyridin-2-yl)thieno[3,2-b]pyridin-2-yl)methyl)-6,6-dimethyl-3-azabicyclo[3.1.0]hexane-2,4-dione hydrochloride], the inhibition at 1 µM under setting [1] was less than 20%.

`CC1(C)C2C(=O)N(Cc3cc4nccc(-c5cc(F)cnc5O[C@@H]5CCNC5)c4s3)C(=O)C21` (stereo partly drawn) [Example 158, 3-((7-(5-fluoro-2-(((R)-pyrrolidin-3-yl)oxy)pyridin-3-yl)thieno[3,2-b]pyridin-2-yl)methyl)-6,6-dimethyl-3-azabicyclo[3.1.0]hexane-2,4-dione hydrochloride]: the inhibition at 1 µM under setting [1] was less than 20%.

In the case of `Cc1cc(C(F)(F)F)nc(-c2ccnc3cc(CN4C(=O)C5C(C4=O)C5(C)C)sc23)c1C(=O)N1CC[C@H](O)C1` (stereo partly drawn) [Example 113, 3-((7-(3-((S)-3-hydroxypyrrolidine-1-carbonyl)-4-methyl-6-(trifluoromethyl)pyridin-2-yl)thieno[3,2-b]pyridin-2-yl)methyl)-6,6-dimethyl-3-azabicyclo[3.1.0]hexane-2,4-dione hydrochloride], the 50% inhibitory concentration (IC50) was less than 500 nM.

The compound `Cc1cc(C(F)(F)F)nc(-c2ccnc3cc(CN4C(=O)C5C(C4=O)C5(C)C)sc23)c1C(=O)N1C[C@@H](C)[C@H](N)C1` (stereo partly drawn) [Example 107, 3-((7-(3-((3S,4R)-3-amino-4-methylpyrrolidine-1-carbonyl)-4-methyl-6-(trifluoromethyl)pyridin-2-yl)thieno[3,2-b]pyridin-2-yl)methyl)-6,6-dimethyl-3-azabicyclo[3.1.0]hexane-2,4-dione hydrochloride] gave an IC50 of less than 500 nM.

Regarding `Cc1cc(C(F)(F)F)nc(-c2ccnc3cc(CN4C(=O)C5C(C4=O)C5(C)C)sc23)c1C(=O)N1C[C@@H](N)[C@@H](C)C1` (stereo partly drawn) [Example 106, 3-((7-(3-((3S,4S)-3-amino-4-methylpyrrolidine-1-carbonyl)-4-methyl-6-(trifluoromethyl)pyridin-2-yl)thieno[3,2-b]pyridin-2-yl)methyl)-6,6-dimethyl-3-azabicyclo[3.1.0]hexane-2,4-dione hydrochloride], the IC50 is less than 500 nM.

Turning to `Cc1cc(C#N)nc(-c2ccnc3cc(CN4C(=O)C5C(C4=O)C5(C)C)sc23)c1C(=O)N1CCNCC1` (stereo not shown) [Example 55, 6-(2-((6,6-dimethyl-2,4-dioxo-3-azabicyclo[3.1.0]hexan-3-yl)methyl)thieno[3,2-b]pyridin-7-yl)-4-methyl-5-(piperazine-1-carbonyl)picolinonitrile hydrochloride], the IC50 was less than 500 nM.

With `Cc1nc(Cl)cc(-c2ccnc3cc(CN4C(=O)C5C(C4=O)C5(C)C)sc23)c1NC(=O)[C@@H]1CCNC1` (stereo partly drawn) [Example 120, (3R)—N-(6-chloro-4-(2-((6,6-dimethyl-2,4-dioxo-3-azabicyclo[3.1.0]hexan-3-yl)methyl)thieno[3,2-b]pyridin-7-yl)-2-methylpyridin-3-yl)pyrrolidine-3-carboxamide 2,2,2-trifluoroacetate], the IC50 lay within 1000 to 10000 nM.

As for `Cc1ccnc(-c2ccnc3cc(CN4C(=O)C5C(C4=O)C5(C)C)sc23)c1C(=O)N1CCC(F)(F)C1` (stereo not shown) [Example 49, 3-((7-(3-(3,3-difluoropyrrolidine-1-carbonyl)-4-methylpyridin-2-yl)thieno[3,2-b]pyridin-2-yl)methyl)-6,6-dimethyl-3-azabicyclo[3.1.0]hexane-2,4-dione hydrochloride], the inhibition at 1 µM under setting [1] is less than 20%.

`CN[C@H]1CCCN(C(=O)c2c(C)cc(C(F)(F)F)nc2-c2ccnc3cc(CN4C(=O)C5C(C4=O)C5(C)C)sc23)C1` (stereo partly drawn) [Example 144, 6,6-dimethyl-3-((7-(4-methyl-3-((S)-3-(methylamino)piperidine-1-carbonyl)-6-(trifluoromethyl)pyridin-2-yl)thieno[3,2-b]pyridin-2-yl)methyl)-3-azabicyclo[3.1.0]hexane-2,4-dione trihydrochloride] displayed an IC50 of 1000 to 10000 nM.

As for `Cc1nc(C#N)cc(-c2ccnc3cc(CN4C(=O)C5C(C4=O)C5(C)C)sc23)c1NC(=O)C1CCN1` (stereo not shown) [Example 27, N-(6-cyano-4-(2-((6,6-dimethyl-2,4-dioxo-3-azabicyclo[3.1.0]hexan-3-yl)methyl)thieno[3,2-b]pyridin-7-yl)-2-methylpyridin-3-yl)azetidine-2-carboxamide 2,2,2-trifluoroacetate], the inhibition at 1 µM is less than 20%.

`Cc1cc(C#N)nc(-c2ccnc3cc(CN4C(=O)C5C(C4=O)C5(C)C)sc23)c1NC1CCNC1` (stereo not shown) [Example 20, 6-(2-((6,6-dimethyl-2,4-dioxo-3-azabicyclo[3.1.0]hexan-3-yl)methyl)thieno[3,2-b]pyridin-7-yl)-4-methyl-5-(pyrrolidin-3-ylamino)picolinonitrile dihydrochloride]: the IC50 is less than 500 nM.

Turning to `Cc1ccnc(-c2ccnc3cc(CN4C(=O)C5C(C4=O)C5(C)C)sc23)c1C(O)[C@@H]1CNCCO1` (stereo partly drawn) [Example 101, 3-((7-(3-(hydroxy((S)-morpholin-2-yl)methyl)-4-methylpyridin-2-yl)thieno[3,2-b]pyridin-2-yl)methyl)-6,6-dimethyl-3-azabicyclo[3.1.0]hexane-2,4-dione 2,2,2-trifluoroacetate], the inhibition at 1 µM was less than 20%.
